Data set [1] has as its target Epidermal growth factor receptor (Homo sapiens) (UniProt P00533). Put plainly: Inhibition of EGFR (unknown origin) at 1 uM using poly (Glu,Tyr) 4:1 as substrate measured after 1 hr in presence of ATP by spectrophotometric analysis relative to control.
For a further data set, the system named is HUVEC. Put plainly: Antiproliferative activity against human HUVEC cells expressing VEGFR2 assessed as cell growth inhibition measured after 48 hrs by MTT assay. The class given is functional, cell-based. (In general: Tetrazolium assays rely on reduction of a dye to a coloured formazan, in cell work by metabolically active cells.)
Data set [2] has as its system HepG2. Put plainly: Antiproliferative activity against human HepG2 cells expressing VEGFR2 assessed as cell growth inhibition measured after 48 hrs by MTT assay. The class given is functional, cell-based. Particulars: HepG2, 48 h.
The next data set deals with A549. Put plainly: Antiproliferative activity against human A549 cells expressing EGFR assessed as cell growth inhibition measured after 48 hrs by MTT assay. It is filed as functional, cell-based. Particulars: A549, 48 h.
For the next data set, the system named is MDA-MB-231. Put plainly: Antiproliferative activity against human MDA-MB-231 cells expressing EGFR assessed as cell growth inhibition measured after 48 hrs by MTT assay. The class given is functional, cell-based. To be noted: MDA-MB-231, 48 h.
A further data set relates to L02. Put plainly: Cytotoxicity against human LO2 cells. It is filed as cell-based.
Data set [3] concerns the target T1, Vascular endothelial growth factor receptor 2 (Homo sapiens, UniProt P35968). Put plainly: Inhibition of VEGFR2 (unknown origin) using poly (Glu,Tyr) 4:1 as substrate measured after 1 hr in presence of ATP by spectrophotometric analysis.
A further data set deals with Chorioallantoic membrane. Put plainly: Antiangiogenic activity in chicken fertilized egg chorioallantoic membrane assessed as decrease in blood vessel growth at 10 nM measured after 48 hrs by microscopic analysis. The class given is functional, tissue-based. Particulars: Gallus gallus.
The test system of data set [4] is HepG2. Put plainly: Cell cycle arrest in human HepG2 cells assessed as accumulation at G1 phase at 1 nM measured after 6 hrs by propidium iodide staining based flow cytometry analysis (reference value: 47.9 %). The class given is functional. A general note: A flow cytometer gives signals particle by particle.
Data set [5] concerns HepG2. Put plainly: Cell cycle arrest in human HepG2 cells assessed as accumulation at G2 phase at 1 nM measured after 6 hrs by propidium iodide staining based flow cytometry analysis (reference value: 52.1 %). It is filed as functional.
Data set [6] deals with HepG2. Put plainly: Cell cycle arrest in human HepG2 cells assessed as accumulation at S phase at 1 nM measured after 6 hrs by propidium iodide staining based flow cytometry analysis (reference value: 0 %). It is filed as functional.
Data set [7] relates to HepG2. Put plainly: Cell cycle arrest in human HepG2 cells assessed as accumulation at G1 phase at 10 nM measured after 6 hrs by propidium iodide staining based flow cytometry analysis (reference value: 47.9 %). The class given is functional.
Data set [8] concerns HepG2. Put plainly: Cell cycle arrest in human HepG2 cells assessed as accumulation at G2 phase at 10 nM measured after 6 hrs by propidium iodide staining based flow cytometry analysis (reference value: 52.1 %). It is filed as functional.
In data set [9] the test system is HepG2. Put plainly: Cell cycle arrest in human HepG2 cells assessed as accumulation at S phase at 10 nM measured after 6 hrs by propidium iodide staining based flow cytometry analysis (reference value: 0 %). The class given is functional.
Data set [10] concerns HepG2. Put plainly: Induction of apoptosis in human HepG2 cells assessed as apoptotic cells at 1 nM measured after 6 to 24 hrs by dUTP-FITC/propidium iodide staining based flow cytometry analysis (reference value: 2.6 %). The class given is functional.
The subject of data set [11] is HepG2. Put plainly: Induction of apoptosis in human HepG2 cells assessed as apoptotic cells at 10 nM measured after 6 to 24 hrs by dUTP-FITC/propidium iodide staining based flow cytometry analysis (reference value: 2.6 %). The class given is functional.
A short description of data set [12]: Solubility of compound. It is filed as physicochemical.
The test system of data set [13] is HepG2. Put plainly: Cell cycle arrest in human HepG2 cells assessed as accumulation at G0/G1 phase measured after 6 hrs by propidium iodide staining based flow cytometry analysis. The class given is functional.
The target in data set [14] is T1, Vascular endothelial growth factor receptor 2. Particulars: at 1 µM.
Description: Inhibition of VEGFR2 (unknown origin) at 1 uM using poly (Glu,Tyr) 4:1 as substrate measured after 1 hr in presence of ATP by spectrophotometric analysis relative to control
In data set [15] the test system is HepG2. Put plainly: Induction of apoptosis in human HepG2 cells assessed as necrotic cells at 1 nM measured after 24 hrs by dUTP-FITC/propidium iodide staining based flow cytometry analysis (reference value: 0.2 %).
Data set [16] deals with HepG2. Put plainly: Induction of apoptosis in human HepG2 cells assessed as necrotic cells at 10 nM measured after 24 hrs by dUTP-FITC/propidium iodide staining based flow cytometry analysis (reference value: 0.2 %).

The structures appear in SMILES notation. Calls of active or inactive are those of the source. The rule behind the calls is not given here.

By inhibition is commonly meant the relative decrease from the control value, in per cent. What is called IC50 is the concentration that inhibits the measured activity by half.

T1 sequence (P35968 whole entry): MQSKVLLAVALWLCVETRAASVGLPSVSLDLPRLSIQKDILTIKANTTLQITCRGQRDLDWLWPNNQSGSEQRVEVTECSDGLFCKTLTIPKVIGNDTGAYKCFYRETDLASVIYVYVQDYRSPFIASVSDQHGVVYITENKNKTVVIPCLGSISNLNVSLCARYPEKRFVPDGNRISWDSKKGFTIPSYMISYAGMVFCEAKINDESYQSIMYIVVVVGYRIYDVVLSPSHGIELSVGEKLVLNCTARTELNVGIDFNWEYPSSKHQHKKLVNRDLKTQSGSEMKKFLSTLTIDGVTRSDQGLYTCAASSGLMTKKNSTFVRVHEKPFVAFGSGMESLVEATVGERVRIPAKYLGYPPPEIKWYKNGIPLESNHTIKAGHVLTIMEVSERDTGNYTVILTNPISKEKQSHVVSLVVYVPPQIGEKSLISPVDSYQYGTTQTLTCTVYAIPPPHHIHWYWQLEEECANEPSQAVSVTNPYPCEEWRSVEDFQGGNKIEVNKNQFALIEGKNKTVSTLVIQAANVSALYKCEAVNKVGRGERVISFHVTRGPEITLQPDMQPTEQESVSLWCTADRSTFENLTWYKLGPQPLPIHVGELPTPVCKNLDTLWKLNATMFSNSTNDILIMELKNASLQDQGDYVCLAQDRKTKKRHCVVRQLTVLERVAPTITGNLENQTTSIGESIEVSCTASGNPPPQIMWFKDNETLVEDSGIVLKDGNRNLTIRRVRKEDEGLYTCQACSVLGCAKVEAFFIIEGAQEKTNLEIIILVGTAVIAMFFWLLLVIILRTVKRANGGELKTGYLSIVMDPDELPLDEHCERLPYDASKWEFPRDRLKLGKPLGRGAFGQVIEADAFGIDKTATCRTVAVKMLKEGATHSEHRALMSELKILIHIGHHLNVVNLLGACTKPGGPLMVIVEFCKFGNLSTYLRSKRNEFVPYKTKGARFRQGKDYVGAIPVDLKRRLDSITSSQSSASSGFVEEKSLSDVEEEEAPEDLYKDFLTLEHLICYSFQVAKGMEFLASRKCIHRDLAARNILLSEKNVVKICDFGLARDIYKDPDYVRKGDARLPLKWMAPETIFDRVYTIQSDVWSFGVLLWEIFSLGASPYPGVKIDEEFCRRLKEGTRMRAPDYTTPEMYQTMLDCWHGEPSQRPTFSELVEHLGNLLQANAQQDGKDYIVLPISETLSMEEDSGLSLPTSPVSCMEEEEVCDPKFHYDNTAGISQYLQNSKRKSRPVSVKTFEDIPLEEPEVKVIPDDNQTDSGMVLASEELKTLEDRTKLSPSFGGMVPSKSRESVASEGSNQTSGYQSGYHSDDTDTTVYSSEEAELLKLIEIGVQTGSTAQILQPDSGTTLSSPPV
Chain of Epidermal growth factor receptor (Homo sapiens) (P00533 whole entry): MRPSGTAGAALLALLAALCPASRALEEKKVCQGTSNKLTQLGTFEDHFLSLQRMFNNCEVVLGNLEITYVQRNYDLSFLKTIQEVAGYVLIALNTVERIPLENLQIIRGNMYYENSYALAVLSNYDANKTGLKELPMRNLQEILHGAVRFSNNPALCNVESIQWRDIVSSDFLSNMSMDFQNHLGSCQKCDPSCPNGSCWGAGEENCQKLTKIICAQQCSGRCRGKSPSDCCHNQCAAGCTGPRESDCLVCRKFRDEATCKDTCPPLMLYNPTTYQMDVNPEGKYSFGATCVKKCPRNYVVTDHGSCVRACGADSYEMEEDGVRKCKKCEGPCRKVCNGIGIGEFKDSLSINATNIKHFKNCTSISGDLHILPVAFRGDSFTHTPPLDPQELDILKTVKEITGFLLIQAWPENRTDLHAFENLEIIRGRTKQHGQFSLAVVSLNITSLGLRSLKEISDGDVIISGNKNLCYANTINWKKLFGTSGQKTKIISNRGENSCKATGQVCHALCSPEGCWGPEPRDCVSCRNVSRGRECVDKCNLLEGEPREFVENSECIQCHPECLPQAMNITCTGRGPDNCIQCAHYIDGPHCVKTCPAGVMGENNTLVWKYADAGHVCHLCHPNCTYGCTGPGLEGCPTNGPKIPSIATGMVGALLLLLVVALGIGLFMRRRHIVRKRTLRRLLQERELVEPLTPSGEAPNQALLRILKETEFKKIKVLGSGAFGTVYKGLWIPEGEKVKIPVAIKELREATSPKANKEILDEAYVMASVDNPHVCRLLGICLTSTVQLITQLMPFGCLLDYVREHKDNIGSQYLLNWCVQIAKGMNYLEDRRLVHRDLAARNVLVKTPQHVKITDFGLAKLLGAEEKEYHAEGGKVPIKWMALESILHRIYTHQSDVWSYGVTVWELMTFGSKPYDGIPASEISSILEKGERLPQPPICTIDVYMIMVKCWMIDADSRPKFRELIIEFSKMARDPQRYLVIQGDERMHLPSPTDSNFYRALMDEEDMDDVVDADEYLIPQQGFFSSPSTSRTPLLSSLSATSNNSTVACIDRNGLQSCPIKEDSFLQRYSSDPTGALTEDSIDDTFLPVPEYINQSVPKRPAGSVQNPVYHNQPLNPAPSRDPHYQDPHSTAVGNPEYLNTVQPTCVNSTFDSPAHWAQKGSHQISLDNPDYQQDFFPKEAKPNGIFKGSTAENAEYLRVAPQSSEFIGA

As for `O=C(Nc1ccc(Nc2ccc([N+](=O)[O-])c3ncnc(O)c23)cc1)c1ccc(F)cc1`, the inhibition in data set [1] worked out at 69.2%; in data set [14], 102%. Further, the IC50 with HUVEC worked out at 0.5 µM; with HepG2 [2], 0.2 µM; with A549, 69 µM; with MDA-MB-231, 58.4 µM; with L02, 63.2 µM; in data set [3] it was 0.0648 µM. Further, in the data set with Chorioallantoic membrane, the outcome was Active. Also, the Activity in the data set with HepG2 [4] amounted to 52.6%; in the data set on HepG2 [5], 35.9%; in the data set with HepG2 [6] it was 11.5%; with HepG2 [7], 41.7%; with HepG2 [8] it was 24.3%; with HepG2 [9] it was 34%. The Activity with HepG2 [10] was 34.3%; in the data set on HepG2 [11], 72.2%; in the data set on HepG2 [13], “Dose-dependent effect”; in the data set on HepG2 [15], 2.5%; in the data set with HepG2 [16] it was 2.1%. In addition, the solubility result in [12] is given as “Soluble”.

The values above are taken from ChEMBL document CHEMBL4406886, “Discovery of arylamide-5-anilinoquinazoline-8-nitro derivatives as VEGFR-2 kinase inhibitors: Synthesis, in vitro biological evaluation and molecular docking” (Bioorg Med Chem Lett, 2019).
